The text below walks through data of BindingDB's records for PubMed 33333396 (National University of Ireland Galway, 2021).

For orientation: Ki means the dissociation constant of the complex between target and ligand, obtained from inhibition or displacement. A higher Ki goes with weaker binding. Broadly, the IC50 is the concentration needed to halve the response being measured. Low readings indicate greater potency, high ones weaker potency.

Experiment [1] concerns the target T1, Bcl-2 homologous antagonist/killer (Homo sapiens, UniProt Q16611).
T1 sequence (Q16611 whole entry): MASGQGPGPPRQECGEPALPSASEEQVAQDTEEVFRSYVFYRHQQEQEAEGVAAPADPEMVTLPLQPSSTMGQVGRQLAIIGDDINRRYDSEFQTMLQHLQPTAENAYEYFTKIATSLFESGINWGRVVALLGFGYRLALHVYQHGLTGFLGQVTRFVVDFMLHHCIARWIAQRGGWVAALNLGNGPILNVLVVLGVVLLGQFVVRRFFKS
Kind of experiment: Binding affinity to Bak/Mcl-1 (unknown origin) protein protein interaction by fluorescence polarization assay.

In experiment [2] the target is T1, Bcl-2 homologous antagonist/killer. In words: Inhibition of Mcl-1/Bak (unknown origin).

Structures are written as SMILES.

In the case of `CC(C)Oc1cc(C(=O)Nc2ccc(C(=O)Nc3ccc(C(=O)O)cc3OC(C)C)nc2OC(C)C)ccc1N`, in experiment [1], the inhibitory constant (Ki) was 1790 nM. Compound `Cc1cc2c(C(=O)NC(C)c3ccc(Cl)cc3)c(O)c(O)cc2c(O)c1-c1c(C)cc2c(C(=O)NC(C)c3ccc(Cl)cc3)c(O)c(O)cc2c1O` (configuration not stated) [Apogossypol derivative, 8k] came in with a 50% inhibitory concentration (IC50) in experiment [2] of 230 nM.
